The target of this experiment is Epidermal growth factor receptor [T790M,L858R] (Homo sapiens, UniProt P00533, L858R/T790M). Description: Kinase assay.

A value given as a limit tells only on which side of the number the result lay.

Epidermal growth factor receptor [T790M,L858R], sequence (P00533 25-1210 T790M/L858R limits assumed): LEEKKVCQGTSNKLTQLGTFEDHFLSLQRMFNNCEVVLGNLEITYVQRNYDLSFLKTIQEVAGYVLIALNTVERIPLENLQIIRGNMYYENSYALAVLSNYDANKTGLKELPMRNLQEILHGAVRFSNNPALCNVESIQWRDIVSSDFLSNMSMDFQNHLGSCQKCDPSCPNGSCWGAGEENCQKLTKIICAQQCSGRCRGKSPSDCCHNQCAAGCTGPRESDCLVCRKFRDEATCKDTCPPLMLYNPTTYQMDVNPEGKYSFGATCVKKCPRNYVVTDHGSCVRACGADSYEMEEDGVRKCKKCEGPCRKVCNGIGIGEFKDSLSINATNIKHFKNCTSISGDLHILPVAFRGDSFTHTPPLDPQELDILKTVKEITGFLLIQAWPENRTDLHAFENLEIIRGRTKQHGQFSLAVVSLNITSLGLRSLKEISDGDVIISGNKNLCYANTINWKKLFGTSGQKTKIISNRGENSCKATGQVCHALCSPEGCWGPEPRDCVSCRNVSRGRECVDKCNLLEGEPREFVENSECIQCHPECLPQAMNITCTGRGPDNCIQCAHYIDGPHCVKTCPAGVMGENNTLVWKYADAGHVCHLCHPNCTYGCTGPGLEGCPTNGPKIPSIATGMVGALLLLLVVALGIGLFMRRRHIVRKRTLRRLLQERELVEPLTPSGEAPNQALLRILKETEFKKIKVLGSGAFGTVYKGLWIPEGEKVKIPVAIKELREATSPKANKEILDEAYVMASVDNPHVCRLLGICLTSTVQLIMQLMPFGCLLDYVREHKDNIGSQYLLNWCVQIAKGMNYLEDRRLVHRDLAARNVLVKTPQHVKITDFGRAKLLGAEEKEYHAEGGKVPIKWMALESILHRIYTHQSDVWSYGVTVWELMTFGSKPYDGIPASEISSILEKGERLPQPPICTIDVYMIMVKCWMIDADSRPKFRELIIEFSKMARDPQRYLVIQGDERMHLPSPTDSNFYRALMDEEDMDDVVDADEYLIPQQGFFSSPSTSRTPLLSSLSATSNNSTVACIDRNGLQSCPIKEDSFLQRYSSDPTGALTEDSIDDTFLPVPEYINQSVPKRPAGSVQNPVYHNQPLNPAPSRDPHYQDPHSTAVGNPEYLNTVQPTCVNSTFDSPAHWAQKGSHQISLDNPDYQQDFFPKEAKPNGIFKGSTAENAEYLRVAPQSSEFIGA
Description: The assay is performed by combining three components: DNA-tagged kinase; immobilized ligand; and a test compound. The ability of the test compound to compete with the immobilized ligand is measured via quantitative PCR of the DNA tag.For most assays, kinase-tagged T7 phage strains were prepared in an E. coli host derived from the BL21 strain. E. coli were grown to log-phase and infected with T7 phage and incubated with shaking at 32° C. until lysis. The lysates were centrifuged and filtered to remove cell debris. The remaining kinases were produced in HEK-293 cells and subsequently tagged with DNA for qPCR detection. […] The liganded beads were blocked with excess biotin and washed with blocking buffer (SeaBlock (Pierce), 1% BSA, 0.05% Tween 20, 1 mM DTT) to remove unbound ligand and to reduce nonspecific binding. […] All reactions were performed in polystyrene 96-well plates in a final volume of 0.135 ml. […] The kinase concentration in the eluates was measured by qPCR.

`CCOc1cc2ncc(C#N)c(Nc3ccc(OCc4cccc(F)c4)c(Cl)c3)c2cc1NC(=O)CC1CCSS1` (stereo unspecified) [US10246444, Example 40] had a Kd greater than 10 µM.
